Data from patent publication US6191161A, “Prolylendopeptidase inhibitors” (Chinoin Gyogyszer es Vegyeszeti, priority 1995, dated 2001).

Molecular target: T1, prolyl endopeptidase (PEP), rat brain extract (Rattus norvegicus, UniProt O70196)
T1 construct: the supernatant, containing the enzyme, was collected; from tissue; host or cells: rat (Sprague-Dawley, male) whole brain without cerebellum, 40000 g supernatant
T1 sequence (O70196 1-710): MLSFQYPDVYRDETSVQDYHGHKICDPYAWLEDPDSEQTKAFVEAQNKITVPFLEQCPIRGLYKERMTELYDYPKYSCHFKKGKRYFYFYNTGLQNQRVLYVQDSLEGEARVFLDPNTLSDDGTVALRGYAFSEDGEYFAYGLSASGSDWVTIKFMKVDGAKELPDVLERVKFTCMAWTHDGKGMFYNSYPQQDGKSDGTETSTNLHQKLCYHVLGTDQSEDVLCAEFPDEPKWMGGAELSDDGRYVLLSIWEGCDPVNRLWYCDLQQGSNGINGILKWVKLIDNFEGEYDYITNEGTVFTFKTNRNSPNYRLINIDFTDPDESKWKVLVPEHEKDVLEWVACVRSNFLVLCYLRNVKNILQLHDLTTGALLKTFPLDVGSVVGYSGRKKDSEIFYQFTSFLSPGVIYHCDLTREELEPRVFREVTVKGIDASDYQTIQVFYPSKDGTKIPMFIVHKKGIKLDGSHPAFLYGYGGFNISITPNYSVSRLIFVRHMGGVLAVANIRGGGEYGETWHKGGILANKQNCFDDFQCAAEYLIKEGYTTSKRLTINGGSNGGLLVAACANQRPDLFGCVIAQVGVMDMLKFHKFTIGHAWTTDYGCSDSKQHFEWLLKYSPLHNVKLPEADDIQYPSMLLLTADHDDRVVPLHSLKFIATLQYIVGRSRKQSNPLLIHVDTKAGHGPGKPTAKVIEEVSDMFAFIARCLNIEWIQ
Experiment: PEP activity measurement on rat brain extract
Assay type: biochemical, rat (Sprague-Dawley)
Settings: Z-glycyl-prolyl-7-amino-4-methyl-coumarin 62.5 μM, room temperature, 15 min
Method: PEP Activity Measurement on Rat Brain Extract:
After removal of the cerebellum whole brain of male (Sprague-Dawley, 180-200 g) rats was homogenized in a double volume of 0.1 M Tris-HCl, 1 mM EDTA buffer, pH=7.5 (PEP buffer). The homogenate was centrifuged for 30 min. at 4° C. at 40000 g and the supernatant, containing the enzyme, was collected. The pellet was resuspended in the same volume of buffer as in the first case and centrifuged again under the same conditions. The two supernatants were pooled and stored in 1 ml aliquots at -70° C. (for at least 3 months). The supernatant was thawn just before activity measurement and diluted in a 1:15 ratio with PEP buffer. […] The inhibitory effect of compounds was tested under the same conditions in the presence of 100 to 0.001 nM compound.

IC50 | SMILES
360 pM | Cc1ccc2c(c1)C(=O)N(CCC(=O)N1CSC[C@H]1C(=O)N1CCSC1)C2=O [Example 31]
278 pM | O=C([C@@H]1CSCN1C(=O)CCN1C(=O)c2cccc3cccc(c23)C1=O)N1CCSC1 [Example 123]
451 pM | O=C([C@@H]1C[S+]([O-])CN1C(=O)CCCN1C(=O)Nc2ccc([N+](=O)[O-])cc2S1(=O)=O)N1CCCC1 (stereo partly drawn) [Example 171]
